Measurements reported in patent publication US8853203B2, “Diazepinone derivatives” (Novartis AG, priority 2012, dated 2014).
pIC50: −log10 of the molar value.

Legend:
[1] = biological target: human mGluR5a receptors (Homo sapiens (Human), UniProt P41594); experiment: inhibition of glutamate-induced elevation of intracellular calcium in L(tk-) cells expressing human mGluR5a; type: cell-based; settings: glutamate-induced intracellular calcium elevation, L(tk-) cells expressing human mGluR5a; read-out: mGluR5 IC50
Summary of the method: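 Compounds tested for inhibition of the glutamate-induced rise in intracellular calcium concentration in L(tk-) cells stably expressing human mGluR5a.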

[2] = biological target: human mGluR1 (Homo sapiens (Human), UniProt Q13255); experiment: mGluR1 antagonism, L-glutamate induced intracellular calcium increase (FLIPR) in CHO cells stably expressing human mGluR1; type: cell-based; settings: L-glutamate induced intracellular calcium, CHO cells expressing human mGluR1, FLIPR
Sequence of human mGluR1 (Q13255 19-1194): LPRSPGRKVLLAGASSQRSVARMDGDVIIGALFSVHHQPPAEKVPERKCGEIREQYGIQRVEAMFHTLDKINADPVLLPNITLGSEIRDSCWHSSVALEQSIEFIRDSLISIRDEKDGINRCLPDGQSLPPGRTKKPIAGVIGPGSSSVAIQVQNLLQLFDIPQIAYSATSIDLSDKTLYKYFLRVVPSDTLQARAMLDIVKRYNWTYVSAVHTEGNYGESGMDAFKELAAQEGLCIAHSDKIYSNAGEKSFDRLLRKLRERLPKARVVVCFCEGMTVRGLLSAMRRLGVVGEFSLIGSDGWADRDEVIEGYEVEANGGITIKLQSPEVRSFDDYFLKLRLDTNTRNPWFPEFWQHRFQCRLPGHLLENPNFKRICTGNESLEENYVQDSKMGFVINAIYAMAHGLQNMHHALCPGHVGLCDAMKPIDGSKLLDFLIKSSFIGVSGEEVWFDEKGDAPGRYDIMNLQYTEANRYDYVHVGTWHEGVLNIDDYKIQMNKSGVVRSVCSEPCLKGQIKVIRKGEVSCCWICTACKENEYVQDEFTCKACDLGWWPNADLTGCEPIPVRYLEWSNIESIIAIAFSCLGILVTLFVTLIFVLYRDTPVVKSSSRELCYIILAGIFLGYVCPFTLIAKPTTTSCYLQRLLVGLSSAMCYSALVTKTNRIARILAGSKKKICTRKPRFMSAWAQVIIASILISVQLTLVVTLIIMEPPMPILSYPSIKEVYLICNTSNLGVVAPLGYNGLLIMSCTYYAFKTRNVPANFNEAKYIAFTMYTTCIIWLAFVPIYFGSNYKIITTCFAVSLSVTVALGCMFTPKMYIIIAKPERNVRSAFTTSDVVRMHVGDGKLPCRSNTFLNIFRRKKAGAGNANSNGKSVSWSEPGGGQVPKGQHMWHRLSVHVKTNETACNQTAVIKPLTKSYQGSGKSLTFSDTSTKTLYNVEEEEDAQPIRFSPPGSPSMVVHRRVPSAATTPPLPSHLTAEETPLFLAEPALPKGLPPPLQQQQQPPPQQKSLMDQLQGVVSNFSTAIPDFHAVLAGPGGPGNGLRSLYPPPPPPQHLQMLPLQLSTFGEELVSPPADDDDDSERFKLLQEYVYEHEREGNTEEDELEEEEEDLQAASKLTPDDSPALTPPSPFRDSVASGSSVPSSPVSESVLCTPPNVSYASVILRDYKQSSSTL

Sequence of human mGluR5a receptors (P41594 other isoform, or with tags, fused parts or gaps): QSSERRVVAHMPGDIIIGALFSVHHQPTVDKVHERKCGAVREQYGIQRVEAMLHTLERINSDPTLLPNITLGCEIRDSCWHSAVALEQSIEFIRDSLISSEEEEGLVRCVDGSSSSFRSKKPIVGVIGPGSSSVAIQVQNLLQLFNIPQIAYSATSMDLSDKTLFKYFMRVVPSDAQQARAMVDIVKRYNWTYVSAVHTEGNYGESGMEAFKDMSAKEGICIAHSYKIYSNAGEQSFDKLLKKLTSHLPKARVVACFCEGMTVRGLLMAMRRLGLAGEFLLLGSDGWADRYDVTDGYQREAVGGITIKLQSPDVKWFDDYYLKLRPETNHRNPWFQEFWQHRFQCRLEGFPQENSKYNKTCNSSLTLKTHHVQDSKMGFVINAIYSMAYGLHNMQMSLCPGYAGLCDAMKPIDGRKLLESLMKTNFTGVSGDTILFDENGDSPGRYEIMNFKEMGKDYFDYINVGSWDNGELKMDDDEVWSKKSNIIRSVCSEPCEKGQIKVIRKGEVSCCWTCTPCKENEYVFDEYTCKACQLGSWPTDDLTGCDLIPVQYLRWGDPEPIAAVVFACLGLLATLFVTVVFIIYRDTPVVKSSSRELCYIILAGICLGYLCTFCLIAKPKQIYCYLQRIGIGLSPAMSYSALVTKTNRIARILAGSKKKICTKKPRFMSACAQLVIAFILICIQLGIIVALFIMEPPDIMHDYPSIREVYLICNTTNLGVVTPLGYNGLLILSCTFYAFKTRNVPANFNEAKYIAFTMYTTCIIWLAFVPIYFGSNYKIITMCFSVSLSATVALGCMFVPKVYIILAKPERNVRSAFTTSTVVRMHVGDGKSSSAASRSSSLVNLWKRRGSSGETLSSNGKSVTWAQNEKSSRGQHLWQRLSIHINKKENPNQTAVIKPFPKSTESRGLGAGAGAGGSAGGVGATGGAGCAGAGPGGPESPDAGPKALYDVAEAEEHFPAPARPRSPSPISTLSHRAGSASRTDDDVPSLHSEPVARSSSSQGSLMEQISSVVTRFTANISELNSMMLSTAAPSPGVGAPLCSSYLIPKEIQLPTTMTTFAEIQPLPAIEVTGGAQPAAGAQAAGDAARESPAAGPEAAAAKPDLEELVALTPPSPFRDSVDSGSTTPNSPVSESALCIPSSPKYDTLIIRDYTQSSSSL

SMILES | pIC50 [1] | pIC50 [2]
O=C1CN=C(n2cnc(C3CC3)n2)C=C2c3cccc(C4CC4)c3CCN12 [Example 123c, 9-cyclopropyl-2-(3-cyclopropyl-1H-1,2,4-triazol-1-yl)-7,8-dihydro-[1,4]diazepino[7,1-a]isoquinolin-5(4H)-one] | 8.10 | 6.65
COc1cn(C2=NCC(=O)N3CCc4c(cccc4C4CC4)C3=C2)cn1 [Example 123d, 9-cyclopropyl-2-(4-methoxy-1H-imidazol-1-yl)-7,8-dihydro-[1,4]diazepino[7,1-a]isoquinolin-5(4H)-one] | 7.96 | 6.29
O=C1CN=C(n2cnc(C(F)(F)F)c2)C=C2c3cccc(C4CC4)c3CCN12 [Example 123e, 9-cyclopropyl-2-(4-(trifluoromethyl)-1H-imidazol-1-yl)-7,8-dihydro-[1,4]diazepino[7,1-a]isoquinolin-5(4H)-one] | 7.25 | 5.78
O=C1CN=C(n2cnc(-c3ccncc3)c2)C=C2c3cccc(C4CC4)c3CCN12 [Example 123f, 9-cyclopropyl-2-(4-(pyridin-4-yl)-1H-imidazol-1-yl)-7,8-dihydro-[1,4]diazepino[7,1-a]isoquinolin-5(4H)-one] | 6.97 | < 5.70
CCC(=O)c1cccc2c1CCN1C(=O)CN=C(n3cnc(C4CCC4)c3)C=C21 [Example 124, 2-(4-cyclobutyl-1H-imidazol-1-yl)-9-propionyl-7,8-dihydro-[1,4]diazepino[7,1-a]isoquinolin-5(4H)-one] | 8.30 | 5.48
COCc1cn(C2=NCC(=O)N3CCc4c(cccc4C(C)(C)C)C3=C2)cn1 [Example 125, 9-(tert-butyl)-2-(4-(methoxymethyl)-1H-imidazol-1-yl)-7,8-dihydro-[1,4]diazepino[7,1-a]isoquinolin-5(4H)-one] | 6.74 | < 5.70
O=C1CN=C(n2cnc(C3(O)CC3)c2)C=C2c3cccc(C4CC4)c3CCN12 [Example 127, 9-cyclopropyl-2-(4-(1-hydroxycyclopropyl)-1H-imidazol-1-yl)-7,8-dihydro-[1,4]diazepino[7,1-a]isoquinolin-5(4H)-one] | 8.15 | 5.92
O=C1CN=C(n2cnc(CCO)c2)C=C2c3cccc(C4CC4)c3CCN12 [Example 128, 9-cyclopropyl-2-(4-(2-hydroxyethyl)-1H-imidazol-1-yl)-7,8-dihydro-[1,4]diazepino[7,1-a]isoquinolin-5(4H)-one] | 9.00 | 7.39
CC(O)c1cn(C2=NCC(=O)N3CCc4c(cccc4C4CC4)C3=C2)cn1 (stereo not shown) [Example 129, 9-cyclopropyl-2-(4-(1-hydroxyethyl)-1H-imidazol-1-yl)-7,8-dihydro-[1,4]diazepino[7,1-a]isoquinolin-5(4H)-one] | 8.70 | 5.82
O=C1CN=C(n2cnc(C(O)C3CC3)c2)C=C2c3cccc(C4CC4)c3CCN12 (stereo not shown) [Example 130, 9-cyclopropyl-2-(4-(cyclopropyl(hydroxy)methyl)-1H-imidazol-1-yl)-7,8-dihydro-[1,4]diazepino[7,1-a]isoquinolin-5(4H)-one] | 7.57 | 5.48
O=C1CN=C(n2cnc(COC(F)(F)F)c2)C=C2c3cccc(C4CC4)c3CCN12 [Example 131, 9-cyclopropyl-2-(4-((trifluoromethoxy)methyl)-1H-imidazol-1-yl)-7,8-dihydro-[1,4]diazepino[7,1-a]isoquinolin-5(4H)-one] | 7.34 | < 5.70
COC(=O)c1cccc2c1CCN1C(=O)CN=C(n3cnc(C4CC4)c3)C=C21 [Example 132, methyl 2-(4-cyclopropyl-1H-imidazol-1-yl)-5-oxo-4,5,7,8-tetrahydro-[1,4]diazepino[7,1-a]isoquinoline-9-carboxylate] | 7.21 | 5.68
O=C1CN=C(n2cnc(C3CC3)n2)C=C2c3cccc(-c4ccc(F)cn4)c3CCN12 [Example 133, 2-(3-cyclopropyl-1H-1,2,4-triazol-1-yl)-9-(5-fluoropyridin-2-yl)-7,8-dihydro-[1,4]diazepino[7,1-a]isoquinolin-5(4H)-one] | 6.67 | < 5.00
O=C1CN=C(n2cnc(C3CC3)n2)C=C2c3cccc(-c4cccc(F)n4)c3CCN12 [Example 134, 2-(3-cyclopropyl-1H-1,2,4-triazol-1-yl)-9-(6-fluoropyridin-2-yl)-7,8-dihydro-[1,4]diazepino[7,1-a]isoquinolin-5(4H)-one] | 6.70 | < 5.00
O=C1CN=C(n2cnc(C3CC3)n2)C=C2c3cccc(-c4cc(F)ccn4)c3CCN12 [Example 135, 2-(3-cyclopropyl-1H-1,2,4-triazol-1-yl)-9-(4-fluoropyridin-2-yl)-7,8-dihydro-[1,4]diazepino[7,1-a]isoquinolin-5(4H)-one] | 6.08 | < 5.00
O=C1CN=C(n2cnc(C3CC3)n2)C=C2c3cccc(-c4cnc(F)cn4)c3CCN12 [Example 136, 2-(3-cyclopropyl-1H-1,2,4-triazol-1-yl)-9-(5-fluoropyrazin-2-yl)-7,8-dihydro-[1,4]diazepino[7,1-a]isoquinolin-5(4H)-one] | 7.72 | < 5.70
Cc1ncn(C2=NCC(=O)N3CCc4c(cccc4-c4cnc(F)cn4)C3=C2)n1 [Example 137, 9-(5-fluoropyrazin-2-yl)-2-(3-methyl-1H-1,2,4-triazol-1-yl)-7,8-dihydro-[1,4]diazepino[7,1-a]isoquinolin-5(4H)-one] | 7.32 | < 5.00
O=C1CN=C(n2cnc(C3CC3)c2)C=C2c3cccc(-n4nccn4)c3CCN12 [Example 138, 2-(4-cyclopropyl-1H-imidazol-1-yl)-9-(2H-1,2,3-triazol-2-yl)-7,8-dihydro-[1,4]diazepino[7,1-a]isoquinolin-5(4H)-one] | 7.10 | 5.83
O=C1CN=C(n2cnc(C3CC3)c2)C=C2c3cccc(-c4cnc(F)cn4)c3CCN12 [Example 139, 2-(4-cyclopropyl-1H-imidazol-1-yl)-9-(5-fluoropyrazin-2-yl)-7,8-dihydro-[1,4]diazepino[7,1-a]isoquinolin-5(4H)-one] | 7.77 | 5.96
O=C1CN=C(n2cnc(C3CC3)c2)C=C2c3ccc(F)c(-c4cnc(F)nc4)c3CCN12 [Example 140] | 7.03 | < 5.00
O=C1CN=C(n2cnc(C3CC3)c2)C=C2c3cccc(-c4cncc(F)n4)c3CCN12 [Example 141, 2-(4-cyclopropyl-1H-imidazol-1-yl)-9-(6-fluoropyrazin-2-yl)-7,8-dihydro-[1,4]diazepino[7,1-a]isoquinolin-5(4H)-one] | 7.59 | 6.40
COCc1cn(C2=NCC(=O)N3CCc4c(OC(C)C)cccc4C3=C2)cn1 [Example 142, 9-isopropoxy-2-(4-(methoxymethyl)-1H-imidazol-1-yl)-7,8-dihydro-[1,4]diazepino[7,1-a]isoquinolin-5(4H)-one] | 6.56 | < 5.70
COCc1cn(C2=NCC(=O)N3CCc4c(C5CC5)cccc4C3C2)cn1 (stereo not shown) [Example 143, 9-cyclopropyl-2-(4-(methoxymethyl)-1H-imidazol-1-yl)-1,7,8,12b-tetrahydro-[1,4]diazepino[7,1-a]isoquinolin-5(4H)-one] | 6.55 | < 5.00
